Several values for one entry are separate records, joined by “and”; a condition that tells them apart may be missing. Identical values can stand only once. Activity calls are given as the source filed them.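 Rule for the calls: active = curve reaches 40% activation over neutral controls at an AC40 no higher than the top valid tested concentration; inconclusive = no clear call, values can overlap the other calls; inactive = signal moving opposite to the expected increase, and the rest.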
tested on: INS-1E GLuc insulin secretion reporter, luminescence, 2-3 h; experiment: GLuc-reported insulin release enhancers, glucose-stimulated beta cells – cell-based, INS-1E, Gaussia luciferase, luminescence, cherry-pick, set 2, dose response (AID 977607)

`Cc1c(CC(=O)O)c(=O)oc2c(C)c(OCc3ccccc3Br)ccc12` was tested, and the AC40 was > 35 µM (inactive).
For `COc1ccc(NC(=O)c2csc(C)c2)cc1OC`, the AC40 was > 35 µM (inactive).
For `C/C(=N/NC(=O)c1ccc(Br)s1)c1ccncc1`, the AC40 was > 35 µM (inactive).
In the case of `Cc1ccc(-c2ccc(C3[C@@H]4CN(C(=O)Nc5ccc(C(F)(F)F)cc5)C[C@H]3N4)cc2)cc1` (stereo partly specified), the AC40 is reported as 4.06 µM and 2.82 µM.
With `O=C(O)c1ccc(-n2nc(-c3ccccc3)c3ccccc3c2=O)cc1` the AC40 was > 35 µM (inactive).

Compared with `O=c1[nH]cnc2nc(-c3ccc(N(CCCl)CCCl)cc3)[nH]c12`, `CCN(CC)c1ccc(N=Cc2c(O)n(Cc3ccccc3)c(=O)[nH]c2=O)cc1` is 1.9-fold higher in AC40: 5.89 µM for the first, 11.3 µM for the second.

`COc1ccccc1CCn1cnc(-c2ccccc2OC)c1CC(C)C` and `CCCCc1c(Cc2cccc(F)c2)ncn1CCc1ccccc1OC` are within 1.5-fold of each other in AC40: 14.6 µM for the first, 12.3 µM for the second.

`CC(C)C(Cl)=NOC(=O)Nc1ccc(S(N)(=O)=O)cc1` and `NS(=O)(=O)c1ccc(NC(=S)N2CCN(c3ccc(Cl)c(Cl)c3)CC2)cc1` are within 1.5-fold of each other in AC40: 10.2 µM for the first, 9.46 µM for the second.

`Fc1ccc(-c2ccc(C3[C@@H]4CN(Cc5ccccc5)C[C@H]3N4)cc2)cc1` (stereo partly specified) and `Cc1ccc(Oc2ncc(-c3ccc(Cl)cc3)cn2)cc1` are within 1.5-fold of each other in AC40: 6.57 µM for the first, 6.86 µM for the second.

`COC(=O)C1=C(C)N(Cc2cccc(C(F)(F)F)c2)C(=NCc2ccc3c(c2)OCO3)NC1CCc1ccccc1` (stereo unspecified) and `COC(=O)C1=C(C)N(Cc2cccc(C(F)(F)F)c2)C(=NCc2ccc(OC)cc2)NC1c1cccc(F)c1` (stereo unspecified) are within 1.5-fold of each other in AC40: 13.1 µM for the first, 10.8 µM for the second.

Compared with `C=C[C@@]1(C)CC(=O)[C@]2(O)[C@@]3(C)[C@@H](O)CCC(C)(C)[C@@H]3[C@H](O)[C@H](OC(C)=O)[C@@]2(C)O1`, `COc1ccc(C(=O)C2CCCN(C(=O)c3n[nH]c4c3CCCC4)C2)cc1OC` (stereo unspecified) is 120-fold higher in AC40: 0.0336 µM for the first, 3.89 µM for the second.

`Cc1ccc(C)c(C(=O)Nc2nc3ccccc3[nH]2)c1` and `COc1ccccc1C(=O)Nc1c2c(nn1-c1cccc(C)c1C)CS(=O)(=O)C2` are within 1.5-fold of each other in AC40: 8.78 µM for the first, 7.77 µM for the second.

First: COc1cc2c(cc1OC)-c1cc(Nc3ccc(N(C)C)cc3)nc(=O)n1CC2
Second: COc1ccc(C(=O)NCC(=O)OCC(=O)Nc2ccc(C)c(S(=O)(=O)N(C)C)c2)cc1OC
The AC40 of the first is 3.2-fold higher: 5.31 µM for the first, 1.67 µM for the second.

Going from `CC(C)Cn1c(=O)n(C)c(=O)c2[nH]cnc21` to `Cc1ccc(-n2sc3cc(F)ccc3c2=O)c(C)c1`, the AC40 falls from 9.51 µM to 1.94 µM (4.9-fold).

First: O=C(Nc1ccc(Cl)c(Cl)c1)Nc1nc(-c2ccccc2)cs1
Second: CNc1nc(-c2ccccc2)[n+](-c2ccc(C)cc2)s1
The AC40 of the first is 2.2-fold higher: 4.71 µM for the first, 2.16 µM for the second.

Going from `CC1(C(=O)NS(=O)(=O)c2ccccc2Cl)CCN1C(=O)C1(c2ccccc2)CCCC1` (stereo unspecified) to `CC(NC(=O)COC(=O)c1ccccc1Nc1ccccc1)c1ccccc1` (stereo unspecified), the AC40 falls from 19.3 µM to 12.2 µM (1.6-fold).

`CCOC(=O)Nc1cccc(OCC(=O)Nc2ccc3c(c2)CCC3)c1` and `COc1cc(CN2CCc3ccccc3C2)ccc1O` are within 1.5-fold of each other in AC40: 7.83 µM for the first, 6.75 µM for the second.

`CCCc1cc(-c2nc(-c3ccc(C)cc3)cs2)ccn1` and `COc1ccc(C2=Nn3c(nnc3-c3ccncc3)SC2)cc1OC` are within 1.5-fold of each other in AC40: 10.2 µM for the first, 13.3 µM for the second.

Going from `CC(=O)C1=C(S(=O)(=O)c2ccc(C)cc2)CS(=O)(=O)C1` to `CCOC(=O)c1cnc2ccc(Cl)cc2c1Nc1ccc(S(=O)(=O)Nc2ncccn2)cc1`, the AC40 rises from 1.23 µM to 3.45 µM (2.8-fold).

First: C[C@H]1CN([C@@H](C)CO)S(=O)(=O)c2ccc(C#Cc3ccccc3)cc2O[C@@H]1CN(C)C(=O)CN(C)C
Second: Cc1c(C(=O)OCC(=O)N2CC(=O)Nc3ccccc32)oc2ccc(Br)cc12
The AC40 of the first is 5.9-fold higher: 28 µM for the first, 4.76 µM for the second.

Going from `CCCc1nnc2n1N=C(c1ccc(OC)c(OC)c1)CS2` to `COc1ccc(-c2ccc3c(N)c(C(=O)c4ccc(OC)c(OC)c4)sc3n2)cc1`, the AC40 rises from 2.98 µM to 5.83 µM (2-fold).

Going from `COc1ccc(-c2ccc(-c3noc(-c4ccco4)n3)c(OC)n2)cc1` to `COc1cccc(-c2cc(C(=O)Nc3cc(C)on3)no2)c1`, the AC40 rises from 7.71 µM to 19.2 µM (2.5-fold).

`COc1ccc2c(c1)CCc1c(C(=O)Nc3cc(C)n(Cc4ccc(Cl)cc4)n3)noc1-2` and `Cc1cc(NC(=O)c2cc(-c3cccc(Cl)c3)on2)no1` are within 1.5-fold of each other in AC40: 6.07 µM for the first, 5.68 µM for the second.

First: CCOC(=O)c1[nH]c2cc(OC)c(OC)cc2c1NC(=O)c1ccc2c(c1)OCO2
Second: CC(C)CC(NC(=O)c1ccc(Cl)cc1)C(=O)OCC(=O)c1ccc2c(c1)NC(=O)CO2 (stereo unspecified)
The AC40 of the first is 7.7-fold higher: 18.1 µM for the first, 2.36 µM for the second.

Going from `OC(c1ccccc1)(c1nc(-c2cccc(C(F)(F)F)c2)cs1)C(F)(F)F` (stereo unspecified) to `CCCNC(=O)c1nnsc1S(=O)c1ccc(Cl)cc1` (stereo unspecified), the AC40 falls from 10.3 µM to 1.06 µM (9.7-fold).

In the case of `CCCCCCCOC(=O)c1nc(Cl)c(Cl)c(N)c1Cl`, the AC40 is reported as 14.5 µM.

— PubChem BioAssay AID977607 (Broad Institute, 2014)
